# Source: patent US9533946B1, “N-carbamoylputrescine to enhance muscle protein synthesis” (CITRAGE, priority 2016, dated 2017)
# Marks after values point to notes of the source that are not given here.
# Experiments:
# [1] = General effects of NCP-supplemented diet in rats (weight, behaviour, mortality, body composition); format: in vivo; details: for Initial weight: n = 7, before feeding period, mean ± SD; for Daily weight gain / Final weight / Weight gain: n = 7, mean ± SD
# Procedure: (§1) Eight-week old Sprague-Dawley rats (Charles Rivers, Lyon, France) were used. They were placed in individual cages and acclimatized for two weeks to our animal facility. During this period they received standard rodent chow (A04, UAR, Villemoisson-sur-Orge, France) and water ad libitum.
# (§2) After acclimatization twenty eight-month old rats were randomized into three groups in order to receive for two weeks a standard diet either alone (n=6; control group) or supplemented with NCP either 5 mg/kg/d (n=7, NCP5 group) or 50 mg/kg/d (n=7; NCP50 group). Their weight, behaviour and mortality were monitored throughout the feeding period.
# (§3) At the end of the feeding period, the rats, in the fasted state, were anesthetized by isoflurane inhalation and euthanized by decapitation.
# (§4) Mixed blood was collected onto heparinized tubes and rapidly centrifuged. The liver was immediately removed and weighed, and a sample was cut off, frozen in liquid nitrogen, and stored at −80° C. until analysis. For the jejunum and ileum, the intestine was washed with cold NaCl (0.9%) and reverted. Thereafter the intestinal mucosa was scraped, rapidly frozen in liquid nitrogen, and stored at −80° C. until analysis. Two muscles of the hindlimb, tibialis (rich in type II fibres) and soleus (rich in type I fibres), and the right kidney were rapidly removed, weighed, frozen in liquid nitrogen, and stored at −80° C. until analysis. Body composition was assessed by dissection and lean mass (carcass), visceral fat mass, sub-cutaneous fat mass (subcutaneous fat and skin) and mass of the viscera were determined.
# [2] = tested on: soleus (rich in type I fibres); experiment: Soleus protein content after NCP-supplemented diet in rats; format: in vivo, Sprague-Dawley rats
# Procedure: as §1, §2, §3, §4
# (§5) Biological parameters studied were: • in tissues: NCP, protein and amino acid contents • in plasma: amino acids, liver function tests (plasma aspartate aminotransferase, alanine aminotransferase, alkaline phosphatase, and bilirubin), muscle enzymes (plasma creatine kinase, and lactate dehydrogenase), plasma electrolytes (sodium, potassium, chloride, bicarbonates), total protein, urea, creatinine, calcium, phosphate, magnesium, uric acid, glucose, cholesterol and triglycerides. […]
# [3] = tested on: liver, kidney, tibialis, and jejunal and ileal mucosa; experiment: Protein contents of other tissues after NCP-supplemented diet in rats; format: in vivo, Sprague-Dawley rats; details: between the three groups
# Procedure: as §1, §2, §3
# as §4, with “Two muscles of the hindlimb, tibialis (rich in type II fibres) and soleus (rich in type I fibres), and the right kidney were rapidly removed, weighed, frozen in liquid nitrogen, and stored at −80° C. until analysis.” left out, “determined. […]” for “determined.”
# [4] = Plasma biological parameters after NCP-supplemented diet in rats; format: in vivo
# Procedure: as §1, §2, §3, §4, §5
# [5] = tested on: soleus (rich in type I fibres); experiment: Soleus amino acid content after NCP-supplemented diet in rats; format: in vivo, Sprague-Dawley rats; design: Soleus Serine content / Soleus Asparagine content / Soleus Glutamate content / Soleus Glycine content / Soleus Citrulline content / Soleus Valine content / Soleus Isoleucine content / Soleus Leucine content / Soleus Tyrosine content / Soleus Phenylalanine content / Soleus Ornithine content / Soleus Histidine content / Soleus Lysine content / Soleus Arginine content / Soleus Proline content / Soleus Taurine content / Soleus Aspartate content / Soleus Threonine content: unit not given here
# Procedure: as §1
# as §2, with “[…]; […]).” for “NCP5 group) or 50 mg/kg/d (n=7; NCP50 group).”
# as §3, §4
# Biological parameters studied were: • in tissues: NCP, protein and amino acid contents • in plasma: amino acids, liver function tests (plasma aspartate aminotransferase, alanine aminotransferase, alkaline phosphatase, and bilirubin), muscle enzymes (plasma creatine kinase, and lactate dehydrogenase), plasma electrolytes (sodium, potassium, chloride, bicarbonates), total protein, urea, creatinine, calcium, phosphate, magnesium, uric acid, glucose, cholesterol and triglycerides. Results General Effects of N-carbamoyl Putrescine
# [6] = rats, NCP 5 mg/kg/d in diet, two weeks
# [7] = rats, NCP 50 mg/kg/d in diet, two weeks
# [8] = rats, NCP 5 or 50 mg/kg/d in diet, two weeks
structure (smiles),measurement,setting,value
"NCCCCNC(N)=O [NCP, 1-(4-aminobutyl) urea]",side effects,"[1]; mammals, after administration",no side effects were noticed
same,Initial weight,"[1]; rats, NCP 5 mg/kg group",264.9 ± 16 g
same,Daily weight gain,[1]; [6],3.44 ± 0.58 g/day
same,Final weight,[1]; [6],313.1 ± 18.1 g
same,Weight gain,[1]; [6],48.1 ± 8.1 g
same,Initial weight,"[1]; rats, NCP 50 mg/kg group",264.9 ± 8.2 g
same,Daily weight gain,[1]; [7],3.65 ± 0.62 g/day
same,Final weight,[1]; [7],316.1 ± 13.9 g
same,Weight gain,[1]; [7],51.2 ± 8.7 g
same,general behavior,[1]; [8],No rats showed abnormal general behavior
same,weight gain compared to controls,[1]; [8],no difference
same,"body composition (lean mass, fat mass, mass of the viscera, liver mass)","[1]; rats, NCP 5 or 50 mg/kg/d vs control, data not shown",no difference between the groups
same,protein level in soleus,"[2]; NCP5 group (5 mg/kg/d, two weeks), control 12.7±1.8, p=0.018 vs control",14.5±0.7 g/100 g
same,protein level in soleus vs control group,"[2]; NCP5 vs control, p=0.018",higher
same,protein level in soleus,"[2]; NCP50 group (50 mg/kg/d, two weeks), control 12.7±1.8",14.0±0.8 g/100 g
same,"liver, kidney, tibialis, and jejunal and ileal mucosa protein contents",[3],similar
same,Plasma urea,"[4]; NCP50 group vs NCP5, FIG. 1",higher
same,Plasma urea,[4]; the two NCP-supplemented groups compared to control rats,no difference
same,"plasma electrolytes, hepatic and muscular enzymes, creatinine, glucose, cholesterol, triglycerides and uric acid levels","[4]; three groups (control, NCP5, NCP50), data not shown",No difference
same,Soleus Alanine content,"[5]; NCP 5 mg/kg, n = 7, mean ± SD",1735 ± 385^ab μmol/g
same,Soleus Arginine content,"[5]; NCP 5 mg/kg, n = 7, mean ± SD",381 ± 115
same,Soleus Asparagine content,"[5]; NCP 5 mg/kg, n = 7, mean ± SD",519 ± 106
same,Soleus Aspartate content,"[5]; NCP 5 mg/kg, n = 7, mean ± SD",4195 ± 703
same,Soleus Citrulline content,"[5]; NCP 5 mg/kg, n = 7, mean ± SD",351 ± 53
same,Soleus Glutamate content,"[5]; NCP 5 mg/kg, n = 7, mean ± SD",3753 ± 684
same,Soleus Glutamine content,"[5]; NCP 5 mg/kg, n = 7, mean ± SD",7605 ± 1016^ab μmol/g
same,Soleus Glycine content,"[5]; NCP 5 mg/kg, n = 7, mean ± SD",1932 ± 516
same,Soleus Histidine content,"[5]; NCP 5 mg/kg, n = 7, mean ± SD",415 ± 50^a μmol/g
same,Soleus Isoleucine content,"[5]; NCP 5 mg/kg, n = 7, mean ± SD",83 ± 17
same,Soleus Leucine content,"[5]; NCP 5 mg/kg, n = 7, mean ± SD",103 ± 23
same,Soleus Lysine content,"[5]; NCP 5 mg/kg, n = 7, mean ± SD",933 ± 222
same,Soleus Ornithine content,"[5]; NCP 5 mg/kg, n = 7, mean ± SD",75 ± 12
same,Soleus Phenylalanine content,"[5]; NCP 5 mg/kg, n = 7, mean ± SD",75 ± 19
same,Soleus Proline content,"[5]; NCP 5 mg/kg, n = 7, mean ± SD",196 ± 42
same,Soleus Serine content,"[5]; NCP 5 mg/kg, n = 7, mean ± SD",1933 ± 384
same,Soleus Taurine content,"[5]; NCP 5 mg/kg, n = 7, mean ± SD",23882 ± 2585
same,Soleus Threonine content,"[5]; NCP 5 mg/kg, n = 7, mean ± SD",512 ± 109
same,Soleus Tyrosine content,"[5]; NCP 5 mg/kg, n = 7, mean ± SD",106 ± 15
same,Soleus Valine content,"[5]; NCP 5 mg/kg, n = 7, mean ± SD",182 ± 22
same,Soleus Alanine content,"[5]; NCP 50 mg/kg, n = 6, mean ± SD",2025 ± 182^b μmol/g
same,Soleus Arginine content,"[5]; NCP 50 mg/kg, n = 6, mean ± SD",395 ± 62
same,Soleus Asparagine content,"[5]; NCP 50 mg/kg, n = 6, mean ± SD",538 ± 124
same,Soleus Aspartate content,"[5]; NCP 50 mg/kg, n = 6, mean ± SD",4742 ± 1443
same,Soleus Citrulline content,"[5]; NCP 50 mg/kg, n = 6, mean ± SD",379 ± 65
same,Soleus Glutamate content,"[5]; NCP 50 mg/kg, n = 6, mean ± SD",4074 ± 390
same,Soleus Glutamine content,"[5]; NCP 50 mg/kg, n = 6, mean ± SD",8547 ± 988^b μmol/g
same,Soleus Glycine content,"[5]; NCP 50 mg/kg, n = 6, mean ± SD",2145 ± 153
same,Soleus Histidine content,"[5]; NCP 50 mg/kg, n = 6, mean ± SD",494 ± 6
same,Soleus Isoleucine content,"[5]; NCP 50 mg/kg, n = 6, mean ± SD",91 ± 22
same,Soleus Leucine content,"[5]; NCP 50 mg/kg, n = 6, mean ± SD",113 ± 32
same,Soleus Lysine content,"[5]; NCP 50 mg/kg, n = 6, mean ± SD",1009 ± 168
same,Soleus Ornithine content,"[5]; NCP 50 mg/kg, n = 6, mean ± SD",74 ± 15
same,Soleus Phenylalanine content,"[5]; NCP 50 mg/kg, n = 6, mean ± SD",77 ± 11
same,Soleus Proline content,"[5]; NCP 50 mg/kg, n = 6, mean ± SD",199 ± 26
same,Soleus Serine content,"[5]; NCP 50 mg/kg, n = 6, mean ± SD",1964 ± 248
same,Soleus Taurine content,"[5]; NCP 50 mg/kg, n = 6, mean ± SD",25223 ± 1987
same,Soleus Threonine content,"[5]; NCP 50 mg/kg, n = 6, mean ± SD",571 ± 67
same,Soleus Tyrosine content,"[5]; NCP 50 mg/kg, n = 6, mean ± SD",126 ± 21
same,Soleus Valine content,"[5]; NCP 50 mg/kg, n = 6, mean ± SD",194 ± 24
same,"concentration of Glutamine, alanine and histidine in soleus muscle","[5]; with NCP administration, positive correlation of glutamine and alanine with dose (p=0.015, p=0.013)",significantly increased
